Data: article PMC11790914, “Chemogenomics for steroid hormone receptors (NR3)” (Communications Chemistry, 2025)
“And” between values parts separate entries of the source, which are not always exact repeats. Equal values may be shown once.

Legend:
HEK293T cells [1] = assay: Cytotoxicity: growth-rate (change in confluence over 24 h); settings: 1 µM, normalized to 0.1% DMSO control, single replicates (n=1...)
Description: (§5) Cells were incubated with the test compounds at the indicated concentrations solubilized with 0.1% DMSO for 24 h. Growth-rate was determined based on the change in confluence over 24 h normalized to the change in confluence of cells treated with the 0.1% DMSO control (n = 10). Metabolic activity was determined with a water-soluble tetrazolium-8 (WST-8) assay (n = 8) after 24 h treatment. Apoptotic cells were detected with a fluorogenic DNA dye coupled to the caspase-3/7 recognition sequence (DEVD) after 24 h treatment and the apoptotic cell count was normalized to 0.1% DMSO treated cells (n = 6).
(§6) HEK293T cells (German Collection of Microorganisms and Cell Culture GmbH, DSMZ; #ACC305) were cultured in DMEM high glucose, supplemented with 10% fetal calf serum (FCS), sodium pyruvate (1 mM), penicillin (100 µ/mL) and streptomycin (100 µg/mL) at 37 °C and 5% (v/v) CO2, and seeded in pre-coated (10 µg/mL collagen G solution (Merck KgaA; #L7213) for 30 min at 37 °C) 96-well plates (2 × 10^5 cells per well). After 24 h, the cells were treated with the respective NR3 CG compound candidate at the recommended concentration, bexarotene (100 µM) or doxorubicin (30 µM) as positive controls in DMEM high glucose supplemented with 0.1% FCS, penicillin (100 µ/mL), streptomycin (100 µg/mL) and 0.1% DMSO, or 0.1% DMSO alone as an untreated control. Each sample was prepared in at least four biologically independent replicates. […] Thereafter, the medium was aspirated and the cells were incubated for 3 h with 90 µL DMEM high glucose supplemented with 0.2% FCS, penicillin (100 µ/mL) and streptomycin (100 µg/mL) and additionally containing 10 µL Cell Counting Kit 8 solution (CCK-8; MedChemExpress, Monmouth Junction, New York, USA; #HY-K0301), and absorbance was measured at 1 h, 2 h and 3 h of incubation at 450 nm on a Tecan Spark Cyto to assess metabolic activity of the cells. Before drug administration, after the first medium exchange, 24 h after drug administration, and after fluorescence imaging cell confluence was assessed using the Tecan Spark Cyto, to account for changes in cell confluence due to drug administration and cell handling. Compound effects on cell confluence, apoptosis, metabolic activity and necrosis were normalized to the vehicle control of each biological replicate individually.

TRIM24 = target: T1, TRIM24 (Homo sapiens, UniProt O15164); assay: Liability panel screening by DSF: TRIM24; format: binding; settings: DSF, 20 µM, n=2; read-out: Mean ΔTM TRIM24
T1 construct: This panel comprised ten highly ligandable kinases and bromodomains; made in house
T1 sequence (O15164 899-1004 limits assumed): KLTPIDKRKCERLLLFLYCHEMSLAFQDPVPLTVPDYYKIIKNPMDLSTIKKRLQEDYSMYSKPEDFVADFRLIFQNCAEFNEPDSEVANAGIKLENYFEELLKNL
Description: (§1) Reference ligands are listed in the methods section.
(§2) In-house produced recombinantly expressed proteins[62] of the liability panel targets were diluted in a buffer containing 10 mM HEPES (pH 7.5) and 500 mM NaCl to a concentration of 2 µM. SYPRO Orange (Invitrogen, Carlsbad, California, USA; #S6650) as a fluorescence probe was added at a 1:1000 dilution to the proteins. […] Temperature-dependent unfolding profiles were measured on a QuantStudio™ 5 real-time PCR machine (Thermo Fisher Scientific, Waltham, Massachusetts, USA; #A28140). […] The temperature was increased 3 °C per minute to a maximum temperature of 85 °C. Experiments were run as technical duplicates. […] Data were analyzed with the internal Thermal Shift Software (version 1.4, Thermo Fisher Scientific) using the Boltzmann equitation to determine the inflection point of the transition curve. Differences in melting temperature are given as ∆Tm in K. […]
(§3) scanning fluorimetry (DSF).
(§4) a concentration of 20 µM.

ABL1 = target: T2, ABL1 (Homo sapiens, UniProt P00519); assay: Liability panel screening by DSF: ABL1; format: binding; settings: DSF, 20 µM, n=2; read-out: Mean ΔTM ABL1
T2 construct: made in house
T2 sequence (P00519 whole entry, species assumed): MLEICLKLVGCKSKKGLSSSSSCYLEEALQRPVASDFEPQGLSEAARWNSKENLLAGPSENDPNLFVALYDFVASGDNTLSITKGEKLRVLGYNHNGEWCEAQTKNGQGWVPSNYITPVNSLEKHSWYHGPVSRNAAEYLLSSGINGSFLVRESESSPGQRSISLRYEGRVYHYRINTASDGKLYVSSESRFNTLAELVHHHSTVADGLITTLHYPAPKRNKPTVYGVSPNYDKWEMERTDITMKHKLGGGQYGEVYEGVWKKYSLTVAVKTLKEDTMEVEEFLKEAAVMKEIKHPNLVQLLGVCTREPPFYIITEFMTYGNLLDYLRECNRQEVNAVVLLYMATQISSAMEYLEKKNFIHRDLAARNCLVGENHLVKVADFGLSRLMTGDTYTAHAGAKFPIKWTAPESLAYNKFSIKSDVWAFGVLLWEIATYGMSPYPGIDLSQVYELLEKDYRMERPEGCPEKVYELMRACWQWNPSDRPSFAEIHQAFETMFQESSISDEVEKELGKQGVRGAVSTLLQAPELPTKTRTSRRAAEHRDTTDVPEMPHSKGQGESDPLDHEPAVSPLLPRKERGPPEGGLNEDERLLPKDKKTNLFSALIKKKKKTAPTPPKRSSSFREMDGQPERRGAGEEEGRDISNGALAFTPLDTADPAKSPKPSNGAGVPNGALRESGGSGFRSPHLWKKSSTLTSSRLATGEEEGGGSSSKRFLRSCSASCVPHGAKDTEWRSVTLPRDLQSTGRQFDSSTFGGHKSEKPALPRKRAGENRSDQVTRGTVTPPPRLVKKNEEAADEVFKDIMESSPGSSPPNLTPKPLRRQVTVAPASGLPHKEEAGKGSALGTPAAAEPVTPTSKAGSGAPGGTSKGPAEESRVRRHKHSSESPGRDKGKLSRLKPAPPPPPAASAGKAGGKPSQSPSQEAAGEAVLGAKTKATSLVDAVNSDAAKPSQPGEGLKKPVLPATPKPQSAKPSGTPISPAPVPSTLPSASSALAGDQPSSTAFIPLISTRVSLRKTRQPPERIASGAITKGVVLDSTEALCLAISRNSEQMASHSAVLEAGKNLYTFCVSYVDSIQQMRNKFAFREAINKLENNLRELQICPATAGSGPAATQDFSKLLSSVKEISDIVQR
Description: as §1, §2, §3, §4

BRPF1 = target: T3, BRPF1 (Homo sapiens, UniProt P55201); assay: Liability panel screening by DSF: BRPF1; format: binding; settings: DSF, 20 µM, n=2; read-out: Mean ΔTM BRPF1
T3 construct: This panel comprised ten highly ligandable kinases and bromodomains; made in house
T3 sequence (P55201 628-732 limits assumed): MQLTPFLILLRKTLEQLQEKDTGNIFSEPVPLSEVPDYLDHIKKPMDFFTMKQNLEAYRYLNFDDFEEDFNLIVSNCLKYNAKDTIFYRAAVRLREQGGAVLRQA
Description: as §1, §2, §3, §4

CSNK1D = target: T4, CSNK1D (Homo sapiens, UniProt P48730); assay: Liability panel screening by DSF: CSNK1D; format: binding; settings: DSF, 20 µM, n=2; read-out: Mean ΔTM CSNK1D
T4 construct: made in house
T4 sequence (P48730 whole entry, species assumed): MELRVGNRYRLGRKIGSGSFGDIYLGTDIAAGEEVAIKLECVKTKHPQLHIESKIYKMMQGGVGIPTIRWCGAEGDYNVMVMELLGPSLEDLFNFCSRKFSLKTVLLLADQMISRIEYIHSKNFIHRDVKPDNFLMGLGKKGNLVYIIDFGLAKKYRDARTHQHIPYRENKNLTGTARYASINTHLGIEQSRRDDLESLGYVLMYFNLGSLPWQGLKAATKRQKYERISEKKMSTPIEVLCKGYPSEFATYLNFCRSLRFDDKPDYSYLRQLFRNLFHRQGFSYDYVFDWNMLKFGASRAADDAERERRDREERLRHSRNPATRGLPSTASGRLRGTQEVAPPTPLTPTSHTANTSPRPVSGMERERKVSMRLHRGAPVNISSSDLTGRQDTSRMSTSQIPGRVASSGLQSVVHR
Description: as §1, §2, §3, §4

MAPK1 = target: T5, MAPK1 (Homo sapiens, UniProt P28482); assay: Liability panel screening by DSF: MAPK1; format: binding; settings: DSF, 20 µM, n=2; read-out: Mean ΔTM MAPK1
T5 construct: made in house
T5 sequence (P28482 whole entry, species assumed): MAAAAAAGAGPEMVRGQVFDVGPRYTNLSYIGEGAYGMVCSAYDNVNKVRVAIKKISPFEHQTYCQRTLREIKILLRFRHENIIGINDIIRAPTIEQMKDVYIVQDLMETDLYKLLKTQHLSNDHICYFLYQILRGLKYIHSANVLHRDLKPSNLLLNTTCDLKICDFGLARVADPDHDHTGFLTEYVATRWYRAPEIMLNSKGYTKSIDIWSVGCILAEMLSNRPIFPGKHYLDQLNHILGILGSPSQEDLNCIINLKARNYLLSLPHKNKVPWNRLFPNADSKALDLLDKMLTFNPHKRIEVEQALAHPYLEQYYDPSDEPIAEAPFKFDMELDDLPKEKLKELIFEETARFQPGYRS
Description: as §1, §2, §3, §4

[2] = system: ATF6 activity in Hela ATF6 reporter cells; assay: Endoplasmic reticulum stress assay (ATF6 Renilla luciferase reporter, tunicamycin); format: cell-based
Description: After 24 h, cells were incubated with the test compounds solubilized with 0.1% DMSO in the same medium without puromycin. After 4 h incubation, tunicamycin (100 ng/mL) was added. After another 18 h incubation, cells were assayed for renilla luminescence using DualGlo reagent (Promega) on a Tecan SPARK Cyto (Tecan). Test samples were normalized to the 0.1% DMSO control. Each sample was repeated in five biologically independent experiments.

HEK293T cells [3] = assay: Cytotoxicity: metabolic activity (WST-8 / CCK-8 assay); settings: 1 µM; HEK293T, 24 h; WST-8; normalized to 0.1% DMSO; single replicates
Description: as §5, §6

[4] = system: NF-κB activity in HEK293 NF-κB reporter cells; assay: NF-kB activity assay (GFP reporter, ionomycin/PMA); format: cell-based; settings: for Mean NFκB response: n=3; for NF-κB activity (inflammatory response to ionomycin/PMA): HEK293 NF-κB reporter cells, compounds at recommended concentrations, imaged over 24 h, n = 3
Description: Fig. 6 Application of the NR3 CG set.
After 24 h, cells were incubated with the test compounds solubilized with 0.1% DMSO in the same medium without puromycin. After 4 h incubation, ionomycin (100 ng/mL) and phorbol-12-myristat-13-acetate (PMA, 10 ng/mL) was added, and the cells were imaged for confluence and GFP expression every 90 min. over 24 h using a Tecan SPARK Cyto (Tecan). The number of GFP expressing cells was normalized to confluence in each sample. Each sample was repeated in three biologically independent experiments.

HEK293T cells [5] = assay: Cytotoxicity: apoptosis induction (caspase-3/7 DEVD fluorogenic DNA dye); settings: 1 µM; HEK293T, 24 h; apoptotic cell count normalized to 0.1% DMSO; single replicates
CDK2 = target: T6, CDK2 (Homo sapiens, UniProt P24941); assay: Liability panel screening by DSF: CDK2; format: binding; settings: DSF, 20 µM, n=2; read-out: Mean ΔTM CDK2
T6 construct: made in house
Description: as §1, §2, §3, §4

AURKA = target: T7, AURKA (Homo sapiens, UniProt O14965); assay: Liability panel screening by DSF: AURKA; format: binding; settings: DSF, 20 µM, n=2; read-out: Mean ΔTM AURKA
T7 construct: made in house
T7 sequence (O14965 1-403): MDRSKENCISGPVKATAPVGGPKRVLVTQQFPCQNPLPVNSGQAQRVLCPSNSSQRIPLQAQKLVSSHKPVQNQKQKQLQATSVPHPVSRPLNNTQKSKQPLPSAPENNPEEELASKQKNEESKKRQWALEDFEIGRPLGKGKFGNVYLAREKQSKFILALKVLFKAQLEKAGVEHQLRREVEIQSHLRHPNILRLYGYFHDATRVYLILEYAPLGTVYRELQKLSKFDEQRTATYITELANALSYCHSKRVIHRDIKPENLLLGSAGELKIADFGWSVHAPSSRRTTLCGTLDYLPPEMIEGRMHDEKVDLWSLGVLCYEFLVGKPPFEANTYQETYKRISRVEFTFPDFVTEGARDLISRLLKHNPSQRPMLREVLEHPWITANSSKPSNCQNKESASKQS
Description: as §1, §2, §3, §4

FGFR3 = target: T8, FGFR3 (Homo sapiens, UniProt P22607); assay: Liability panel screening by DSF: FGFR3; format: binding; settings: DSF, 20 µM, n=2; read-out: Mean ΔTM FGFR3
T8 construct: made in house
T8 sequence (P22607 23-806, species assumed): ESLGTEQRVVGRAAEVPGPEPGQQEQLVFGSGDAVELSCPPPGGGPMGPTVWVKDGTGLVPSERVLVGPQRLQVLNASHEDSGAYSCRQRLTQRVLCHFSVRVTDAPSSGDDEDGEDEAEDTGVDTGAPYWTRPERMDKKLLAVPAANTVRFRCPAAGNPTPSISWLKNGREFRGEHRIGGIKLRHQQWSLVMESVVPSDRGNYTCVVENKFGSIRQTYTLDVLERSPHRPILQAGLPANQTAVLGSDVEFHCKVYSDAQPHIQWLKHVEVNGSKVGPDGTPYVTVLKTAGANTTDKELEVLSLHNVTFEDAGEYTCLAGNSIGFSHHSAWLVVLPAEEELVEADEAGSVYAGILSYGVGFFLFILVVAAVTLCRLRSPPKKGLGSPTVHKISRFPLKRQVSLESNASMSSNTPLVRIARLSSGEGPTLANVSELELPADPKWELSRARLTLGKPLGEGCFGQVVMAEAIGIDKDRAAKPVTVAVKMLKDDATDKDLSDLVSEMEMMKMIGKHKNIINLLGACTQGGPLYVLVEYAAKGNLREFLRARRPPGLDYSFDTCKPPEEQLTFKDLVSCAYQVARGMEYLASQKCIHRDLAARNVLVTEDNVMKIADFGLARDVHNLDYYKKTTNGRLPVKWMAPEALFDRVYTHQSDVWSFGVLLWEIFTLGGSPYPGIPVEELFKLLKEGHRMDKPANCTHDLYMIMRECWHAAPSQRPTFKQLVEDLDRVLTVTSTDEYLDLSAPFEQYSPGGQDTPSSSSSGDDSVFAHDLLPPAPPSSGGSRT
Description: as §1, §2, §3, §4

BRD4 = target: T9, BRD4 (Homo sapiens, UniProt O60885); assay: Liability panel screening by DSF: BRD4; format: binding; settings: DSF, 20 µM, n=2; read-out: Mean ΔTM BRD4
T9 construct: This panel comprised ten highly ligandable kinases and bromodomains; made in house
Description: as §1, §2, §3, §4

GSK3B = target: T10, GSK3B (Homo sapiens, UniProt P49841); assay: Liability panel screening by DSF: GSK3B; format: binding; settings: DSF, 20 µM, n=2; read-out: Mean ΔTM GSK3B
T10 construct: made in house
T10 sequence (P49841 whole entry, species assumed): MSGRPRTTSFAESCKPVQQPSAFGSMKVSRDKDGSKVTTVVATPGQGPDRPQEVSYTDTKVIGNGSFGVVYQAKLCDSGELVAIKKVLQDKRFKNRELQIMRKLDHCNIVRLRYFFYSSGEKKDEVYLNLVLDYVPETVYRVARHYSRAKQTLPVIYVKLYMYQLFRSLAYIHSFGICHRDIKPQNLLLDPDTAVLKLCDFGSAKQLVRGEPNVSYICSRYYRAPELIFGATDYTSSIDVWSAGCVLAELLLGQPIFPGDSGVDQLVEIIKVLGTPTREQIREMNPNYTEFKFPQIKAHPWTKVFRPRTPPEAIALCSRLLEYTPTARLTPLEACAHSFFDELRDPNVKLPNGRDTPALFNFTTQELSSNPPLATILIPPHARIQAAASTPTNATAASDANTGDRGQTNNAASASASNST

HEK293T cells [6] = assay: Cytotoxicity: necrosis induction (red fluorescent dye for permeable plasma membranes); format: cell-based; settings: 1 µM, 24 h, necrotic cell count normalized to 0.1% DMSO, single replicates;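 further: compounds applied in DMEM high glucose with 0.1% FCS and 0.1% DMSO, necrotic HEK293T cells counted by red staining of cells whose plasma membranes had become permeable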

Structure (SMILES) | Growth rate [GR] (HEK293T cells [1]) | Metabolic activity [MA] (HEK293T cells [3]) | Mean NFκB response ([4]; 1 µM, 1,5 h) | Mean NFκB response ([4]; 1 µM, 4,5 h) | Mean NFκB response ([4]; 1 µM, 7,5 h) | Mean NFκB response ([4]; 1 µM, 10,5 h) | Mean NFκB response ([4]; 1 µM, 13,5 h) | Mean NFκB response ([4]; 1 µM, 16,6 h) | Mean NFκB response ([4]; 1 µM, 19,5 h) | Mean NFκB response ([4]; 1 µM, 22,5 h) | Mean NFκB response ([4]; 1 µM, 3 h) | Mean NFκB response ([4]; 1 µM, 6 h) | Mean NFκB response ([4]; 1 µM, 9 h) | Mean NFκB response ([4]; 1 µM, 12 h) | Mean NFκB response ([4]; 1 µM, 15 h) | Mean NFκB response ([4]; 1 µM, 18 h) | Mean NFκB response ([4]; 1 µM, 21 h) | Mean NFκB response ([4]; 1 µM, 24 h) | NF-κB activity (inflammatory response to ionomycin/PMA) [4] | Apoptosis induction [AI] (HEK293T cells [5]) | other results
N#CC(Cc1ccc(O)cc1)c1ccc(O)cc1 (stereo not drawn) [Diarylpropionitrile] | 0.79 (2×) and 0.00 (2×) and 0.84 and 1.00 and 0.91 and 0.88 and 1.61 and 5.04 | 1.05 and 0.99 and 0.90 and 1.01 and 1.03 and 0.93 and 1.00 and 1.10 | 3165.75 GFP+-cells/confluence ∙ 1000 | 4108.72 GFP+-cells/confluence ∙ 1000 | 9286.59 GFP+-cells/confluence ∙ 1000 | 18231.50 GFP+-cells/confluence ∙ 1000 | 25916.56 GFP+-cells/confluence ∙ 1000 | 31500.03 GFP+-cells/confluence ∙ 1000 | 35046.16 GFP+-cells/confluence ∙ 1000 | 38151.13 GFP+-cells/confluence ∙ 1000 | 3363.39 GFP+-cells/confluence ∙ 1000 | 5664.74 GFP+-cells/confluence ∙ 1000 | 14005.24 GFP+-cells/confluence ∙ 1000 | 22519.63 GFP+-cells/confluence ∙ 1000 | 29221.60 GFP+-cells/confluence ∙ 1000 | 33392.36 GFP+-cells/confluence ∙ 1000 | 36386.11 GFP+-cells/confluence ∙ 1000 | 39415.66 GFP+-cells/confluence ∙ 1000 | no impact on NF-κB activity | 0.70 and 1.46 and 0.65 and 1.11 and 1.49 and 0.58 | ΔTm at 20 µM (TRIM24): 0.03 °C; ΔTm at 20 µM (ABL1): 0.17 °C; ΔTm at 20 µM (BRPF1): -1.46 °C; ΔTm at 20 µM (CSNK1D): 0.0747 °C; ΔTm at 20 µM (MAPK1): 0.0328 °C; ATF6 activity (tunicamycin-induced endoplasmic reticulum stress) ([2]; Hela ATF6 reporter cells, tunicamycin 100 ng/mL, 18 h, compounds at recommended concentrations, n = 5): failed to reduce ATF6 activity; ΔTm at 20 µM (CDK2): 0.74 °C; ΔTm at 20 µM (AURKA): 0.16 °C; ΔTm at 20 µM (FGFR3): 0.51 °C; ΔTm at 20 µM (BRD4): 0.26 °C; ΔTm at 20 µM (GSK3B): 0.0529 °C; Necrosis induction [NI] (HEK293T cells [6]): 1.10 and 0.85 and 0.90 and 1.44
CNC(=O)c1ccc(N2C(=S)N(c3ccc(C#N)c(C(F)(F)F)c3)C(=O)C2(C)C)cc1F [Enzalutamide] | 0.61 and 1.23 and 0.75 and 1.17 and 0.84 and 0.95 and 1.00 and 2.30 and 3.82 and 0.45 | 1.02 and 1.04 and 1.01 (2×) and 0.98 and 1.13 | 4053.16 GFP+-cells/confluence ∙ 1000 | 4748.63 GFP+-cells/confluence ∙ 1000 | 9147.14 GFP+-cells/confluence ∙ 1000 | 19308.05 GFP+-cells/confluence ∙ 1000 | 27440.00 GFP+-cells/confluence ∙ 1000 | 33976.67 GFP+-cells/confluence ∙ 1000 | 37833.33 GFP+-cells/confluence ∙ 1000 | 41216.67 GFP+-cells/confluence ∙ 1000 | 4315.98 GFP+-cells/confluence ∙ 1000 | 6007.28 GFP+-cells/confluence ∙ 1000 | 14317.85 GFP+-cells/confluence ∙ 1000 | 23650.00 GFP+-cells/confluence ∙ 1000 | 31096.67 GFP+-cells/confluence ∙ 1000 | 36023.33 GFP+-cells/confluence ∙ 1000 | 39446.67 GFP+-cells/confluence ∙ 1000 | 42106.67 GFP+-cells/confluence ∙ 1000 | tended to enhance NF-κB activity | 0.86 and 1.10 and 1.13 and 0.75 and 1.01 and 0.84 | activity at 1 µM ([2]; Homo sapiens, HeLa, 1 µM, single replicates n=1 to n=5, read-out: ER stress [rel. ATF6 activity]): 99% and 117%; Necrosis induction [NI] (HEK293T cells [6]): 0.88 and 0.97 and 0.94 and 0.81
